How the values were obtained:
[1] = biological target: T1, Androgen receptor (Homo sapiens) (UniProt P10275); test: Reduction in DHT-induced Androgen receptor activity
T1 sequence (whole entry): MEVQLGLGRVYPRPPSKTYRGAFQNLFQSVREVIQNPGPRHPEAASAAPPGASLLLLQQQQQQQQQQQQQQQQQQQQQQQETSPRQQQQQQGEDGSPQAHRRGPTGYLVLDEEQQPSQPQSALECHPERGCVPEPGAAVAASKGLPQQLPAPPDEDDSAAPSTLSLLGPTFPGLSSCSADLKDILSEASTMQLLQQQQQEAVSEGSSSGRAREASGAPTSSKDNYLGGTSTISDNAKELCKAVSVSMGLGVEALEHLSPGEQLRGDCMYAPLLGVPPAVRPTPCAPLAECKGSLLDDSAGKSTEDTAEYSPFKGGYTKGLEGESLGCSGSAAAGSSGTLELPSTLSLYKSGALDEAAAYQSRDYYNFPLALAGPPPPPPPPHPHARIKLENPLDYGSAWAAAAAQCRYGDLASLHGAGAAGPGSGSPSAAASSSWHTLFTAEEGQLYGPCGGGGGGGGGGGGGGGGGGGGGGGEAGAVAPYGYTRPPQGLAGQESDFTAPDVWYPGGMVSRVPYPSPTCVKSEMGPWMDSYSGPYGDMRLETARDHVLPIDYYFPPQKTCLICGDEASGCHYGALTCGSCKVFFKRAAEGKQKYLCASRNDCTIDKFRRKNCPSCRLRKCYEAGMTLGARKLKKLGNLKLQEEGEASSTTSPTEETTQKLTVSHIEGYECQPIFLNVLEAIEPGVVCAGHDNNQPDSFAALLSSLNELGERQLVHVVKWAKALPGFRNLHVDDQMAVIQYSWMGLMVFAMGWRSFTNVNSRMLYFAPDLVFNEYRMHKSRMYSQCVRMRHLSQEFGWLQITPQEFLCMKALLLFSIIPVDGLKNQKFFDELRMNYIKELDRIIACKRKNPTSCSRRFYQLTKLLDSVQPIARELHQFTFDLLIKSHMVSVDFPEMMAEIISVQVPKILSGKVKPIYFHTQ

[2] = biological target: T1, Androgen receptor (Homo sapiens); test: Antagonistic activity against Androgen receptor in DU-145 human prostate cancer cells; assay type: functional, cell-based
[3] = biological target: T1, Androgen receptor (Homo sapiens); test: Antagonistic activity against Androgen receptor in PC-3 human prostate cancer cells; assay type: functional, cell-based

## COc1ccc(CCC(=O)CC(=O)CCc2ccc(OC)c(OC)c2)cc1OC
[1]
  Reduction: 18%

## COc1ccc(CCC(=O)CC(O)CCc2ccc(OC)c(OC)c2)cc1OC (stereo unspecified)
[1]
  Reduction: 18%

## COc1ccc(/C=C/C(=O)/C=C(O)/C=C/c2ccc(OC)c(OC)c2)cc1OC
[2]
  Reduction: 45%
[3]
  Reduction: 70%

## COC(=O)COc1ccc(/C=C/C(=O)/C=C(O)/C=C/c2ccc(OCC(=O)OC)c(OC)c2)cc1OC
[2]
  Reduction: 54%

## CCOC(O)=C(C(=O)/C=C/c1ccc(O)c(OC)c1)C(=O)/C=C/c1ccc(O)c(OC)c1
[2]
  Reduction: 53.8%

Source: ChEMBL document CHEMBL1135641, “Antitumor agents. 217. Curcumin analogues as novel androgen receptor antagonists with potential as anti-prostate cancer agents” (J Med Chem, 2002)
